In US6358885B1, “Substituted phenylheterocyclic herbicides” (Mississippi State University, priority 1992, dated 2002):

Tests used:
wild oat [1] = test: Test C preemergence/postemergence greenhouse plant response rating 0 to 100; type: in vivo, Avena fatua; settings: POSTEMERGENCE
In short: (§1)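 Compounds in non-phytotoxic solvent applied preemergence to sandy loam one day after planting, postemergence at the 1–4 leaf stage, or to ~2.5 cm floodwater over silt loam.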

wild buckwheat = test: Test B preemergence/postemergence greenhouse plant response rating 0 to 10; type: in vivo, Polygonum convolvulus; settings: 0 to 10 scale
In short: (§2)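 Postemergence treatment of plants two to eighteen cm tall ran alongside preemergence treatment of planted seed, each using compound in a non-phytotoxic solvent.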

crabgrass = test: as above; type: in vivo, Digitaria spp.; settings: 0 to 10 scale
In short: as §2

giant foxtail [2] = test: Test C preemergence/postemergence greenhouse plant response rating 0 to 100; type: in vivo, Setaria faberii; settings: POSTEMERGENCE
In short: as §1

wild oat [3] = test: Test B preemergence/postemergence greenhouse plant response rating 0 to 10; type: in vivo, Avena fatua; settings: 0 to 10 scale
In short: as §2

purple nutsedge = test: as above; type: in vivo, Cyperus rotundus; settings: Rate 50 g/ha, 0 to 10 scale
In short: as §2

rape = test: Test C preemergence/postemergence greenhouse plant response rating 0 to 100; type: in vivo, Brassica napus; settings: POSTEMERGENCE
In short: as §1

lambsquarters = test: Test B preemergence/postemergence greenhouse plant response rating 0 to 10; type: in vivo, Chenopodium album; settings: 0 to 10 scale
In short: as §2

barnyardgrass [4] = test: Test C flood test plant response rating 0 to 100; type: in vivo, Echinochloa crus-galli
In short: as §1

downy brome = test: Test C preemergence/postemergence greenhouse plant response rating 0 to 100; type: in vivo, Bromus tectorum; settings: POSTEMERGENCE
In short: as §1

rice = test: Test C flood test plant response rating 0 to 100; type: in vivo, Oryza sativa
In short: as §1

cocklebur = test: Test B preemergence/postemergence greenhouse plant response rating 0 to 10; type: in vivo, Xanthium pensylvanicum; settings: 0 to 10 scale
In short: as §2

barnyardgrass [5] = test: as above; type: in vivo, Echinochloa crus-galli; settings: 0 to 10 scale
In short: as §2

umbrella sedge = test: Test C flood test plant response rating 0 to 100; type: in vivo, Cyperus difformis
In short: as §1

soybean = test: Test C preemergence/postemergence greenhouse plant response rating 0 to 100; type: in vivo, Glycine max; settings: POSTEMERGENCE
In short: as §1

chickweed = test: as above; type: in vivo, Stellaria media; settings: POSTEMERGENCE
In short: as §1

cotton = test: as above; type: in vivo, Gossypium hirsutum; settings: POSTEMERGENCE
In short: as §1

giant foxtail [6] = test: Test B preemergence/postemergence greenhouse plant response rating 0 to 10; type: in vivo, Setaria faberii; settings: 0 to 10 scale
In short: as §2

[7] = POSTEMERGENCE section, flood test, Rate 1 g/ha
[8] = Rate 16 g/ha, under POSTEMERGENCE head (flood test species)
[9] = flood test species listed under POSTEMERGENCE, 62 g/ha, 0 to 100 scale
[10] = POSTEMERGENCE section, flood test, Rate 4 g/ha

SMILES: C#CCN1C(=O)COc2cc(F)c(-c3nn4c(c3Cl)CCCC4)cc21 [Compound 34]
- Plant response rating, Wild oat (wild oat [1]; 62 g/ha, 0 to 100 scale): 30
- Plant response rating (0 to 100), Wild oat (wild oat [1]; Rate 1 g/ha): 10
- Plant response rating (0 to 100), Wild oat (wild oat [1]; Rate 4 g/ha): 20
- Plant response rating (0 to 100), Wild oat (wild oat [1]; Rate 16 g/ha): 20
- Plant response rating, Wild buckwheat (wild buckwheat; POSTEMERGENCE, Rate 10 g/ha): 10
- Plant response rating, Wild buckwheat (wild buckwheat; POSTEMERGENCE, Rate 50 g/ha): 10
- Plant response rating, Wild buckwheat (wild buckwheat; PREEMERGENCE, Rate 50 g/ha): 8
- Plant response rating, Crabgrass (crabgrass; POSTEMERGENCE, Rate 10 g/ha): 3
- Plant response rating, Crabgrass (crabgrass; POSTEMERGENCE, Rate 50 g/ha): 4
- Plant response rating, Crabgrass (crabgrass; PREEMERGENCE, Rate 10 g/ha): 3
- Plant response rating, Crabgrass (crabgrass; PREEMERGENCE, Rate 50 g/ha): 9
- Plant response rating, Giant foxtail (giant foxtail [2]; 62 g/ha, 0 to 100 scale): 70
- Plant response rating (0 to 100), Giant foxtail (giant foxtail [2]; Rate 1 g/ha): 20
- Plant response rating (0 to 100), Giant foxtail (giant foxtail [2]; Rate 4 g/ha): 30
- Plant response rating (0 to 100), Giant foxtail (giant foxtail [2]; Rate 16 g/ha): 40
- Plant response rating, Wild oat (wild oat [3]; POSTEMERGENCE, Rate 10 g/ha): 5
- Plant response rating, Wild oat (wild oat [3]; POSTEMERGENCE, Rate 50 g/ha): 5
- Plant response rating, Wild oat (wild oat [3]; PREEMERGENCE, Rate 50 g/ha): 7
- Plant response rating, Nutsedge (purple nutsedge; POSTEMERGENCE): 0
- Plant response rating, Nutsedge (purple nutsedge; PREEMERGENCE): 0
- Plant response rating, Rape (rape; 62 g/ha, 0 to 100 scale): 100
- Plant response rating (0 to 100), Rape (rape; Rate 1 g/ha): 85
- Plant response rating (0 to 100), Rape (rape; Rate 4 g/ha): 100
- Plant response rating (0 to 100), Rape (rape; Rate 16 g/ha): 100
- Plant response rating, Lambsquarter (lambsquarters; POSTEMERGENCE, Rate 10 g/ha): 9
- Plant response rating, Lambsquarter (lambsquarters; POSTEMERGENCE, Rate 50 g/ha): 10
- Plant response rating, Lambsquarter (lambsquarters; PREEMERGENCE, Rate 50 g/ha): 10
- Plant response rating (0 to 100), Barnyardgrass (barnyardgrass [4]; [7]): 60
- Plant response rating (0 to 100), Barnyardgrass (barnyardgrass [4]; Rate 4 g/ha, under POSTEMERGENCE head (flood test species)): 75
- Plant response rating (0 to 100), Barnyardgrass (barnyardgrass [4]; [8]): 95
- Plant response rating, Barnyardgrass (barnyardgrass [4]; [9]): 100
- Plant response rating Downy Brome (downy brome; 62 g/ha, 0 to 100 scale): 50
- Plant response rating (0 to 100), Downy Brome (downy brome; Rate 1 g/ha): 20
- Plant response rating (0 to 100), Downy Brome (downy brome; Rate 4 g/ha): 30
- Plant response rating (0 to 100), Downy Brome (downy brome; Rate 16 g/ha): 40
- Plant response rating (0 to 100), Rice Japonica (rice; [7]): 20
- Plant response rating (0 to 100), Rice Japonica (rice; [10]): 25
- Plant response rating (0 to 100), Rice Japonica (rice; [8]): 35
- Plant response rating Rice Japonica (rice; [9]): 90
- Plant response rating, Cocklebur (cocklebur; POSTEMERGENCE, Rate 10 g/ha): 10
- Plant response rating, Cocklebur (cocklebur; POSTEMERGENCE, Rate 50 g/ha): 1
- Plant response rating, Cocklebur (cocklebur; PREEMERGENCE, Rate 10 g/ha): 0
- Plant response rating, Cocklebur (cocklebur; PREEMERGENCE, Rate 50 g/ha): 2
- Plant response rating, Barnyardgrass (barnyardgrass [5]; POSTEMERGENCE, Rate 10 g/ha): 4
- Plant response rating, Barnyardgrass (barnyardgrass [5]; POSTEMERGENCE, Rate 50 g/ha): 5
- Plant response rating, Barnyardgrass (barnyardgrass [5]; PREEMERGENCE, Rate 10 g/ha): 3
- Plant response rating, Barnyardgrass (barnyardgrass [5]; PREEMERGENCE, Rate 50 g/ha): 4
- Plant response rating (0 to 100), Umbrella sedge (umbrella sedge; [7]): 0
- Plant response rating (0 to 100), Umbrella sedge (umbrella sedge; [10]): 0
- Plant response rating (0 to 100), Umbrella sedge (umbrella sedge; [8]): 60
- Plant response rating Umbrella sedge (umbrella sedge; [9]): 80
- Plant response rating, Soybean (soybean; 62 g/ha, 0 to 100 scale): 100
- Plant response rating (0 to 100), Soybean (soybean; Rate 1 g/ha): 50
- Plant response rating (0 to 100), Soybean (soybean; Rate 4 g/ha): 70
- Plant response rating (0 to 100), Soybean (soybean; Rate 16 g/ha): 100
- Plant response rating, Chickweed (chickweed; 62 g/ha, 0 to 100 scale): 100
- Plant response rating (0 to 100), Chickweed (chickweed; Rate 1 g/ha): 75
- Plant response rating (0 to 100), Chickweed (chickweed; Rate 4 g/ha): 75
- Plant response rating (0 to 100), Chickweed (chickweed; Rate 16 g/ha): 100
- Plant response rating, Cotton (cotton; 62 g/ha, 0 to 100 scale): 100
- Plant response rating (0 to 100), Cotton (cotton; Rate 1 g/ha): 100
- Plant response rating (0 to 100), Cotton (cotton; Rate 4 g/ha): 100
- Plant response rating (0 to 100), Cotton (cotton; Rate 16 g/ha): 100
- Plant response rating, Giant foxtail (giant foxtail [6]; POSTEMERGENCE, Rate 10 g/ha): 4
- Plant response rating, Giant foxtail (giant foxtail [6]; POSTEMERGENCE, Rate 50 g/ha): 5
- Plant response rating, Giant foxtail (giant foxtail [6]; PREEMERGENCE, Rate 10 g/ha): 3
- Plant response rating, Giant foxtail (giant foxtail [6]; PREEMERGENCE, Rate 50 g/ha): 6
